Data reported in patent US20240287076A1, “COMPOUNDS FOR TARGETING DEGRADATION OF BRUTON'S TYROSINE KINASE” (BIOGEN MA INC., priority 2021, published 2024).

The compounds below were run against T1, BTK (Homo sapiens, UniProt Q06187) (assay: BTK degradation assay using the HiBiT Method (Nano-Glo HiBiT Lytic Assay, GM01501.3 cells)). Conditions: HiBiT Degradation on GM01501.3 BTK @ 6 hours.
T1 construct: The GM01501.3 cell line endogenously expresses BTK with a HiBiT fusion tag via CRISPR knock-in at its C-terminal region; endogenous in cells; host or cells: GM01501.3 (GM01501 cells engineered by CRISPR knock-in of HiBiT at the BTK locus)
T1 sequence (Q06187 whole entry, the tested form may be a part): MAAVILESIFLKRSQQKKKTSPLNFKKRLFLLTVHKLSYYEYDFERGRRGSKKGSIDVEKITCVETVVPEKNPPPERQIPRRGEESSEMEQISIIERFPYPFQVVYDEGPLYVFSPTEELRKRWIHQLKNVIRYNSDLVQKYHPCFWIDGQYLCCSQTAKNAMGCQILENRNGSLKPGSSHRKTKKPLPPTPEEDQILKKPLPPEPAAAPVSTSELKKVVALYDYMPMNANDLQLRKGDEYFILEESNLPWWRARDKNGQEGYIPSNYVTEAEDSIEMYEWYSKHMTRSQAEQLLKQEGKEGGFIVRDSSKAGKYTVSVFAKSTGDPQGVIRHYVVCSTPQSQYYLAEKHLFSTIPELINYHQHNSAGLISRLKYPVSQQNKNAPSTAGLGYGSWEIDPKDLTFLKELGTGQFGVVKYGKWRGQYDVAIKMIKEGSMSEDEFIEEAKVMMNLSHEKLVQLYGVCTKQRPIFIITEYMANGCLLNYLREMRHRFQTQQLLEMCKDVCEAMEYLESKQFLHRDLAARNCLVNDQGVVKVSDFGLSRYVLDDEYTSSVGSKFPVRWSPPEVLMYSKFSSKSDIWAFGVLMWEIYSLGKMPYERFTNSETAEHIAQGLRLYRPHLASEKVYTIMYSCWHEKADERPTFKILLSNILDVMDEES
Type: cell-based
Summary of the method: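 CRISPR knock-in GM01501.3 cells expressing endogenous BTK with C-terminal HiBiT tag, treated 6 h at 37 °C with compounds, 11-point half-log titration from 10 μM top, duplicates. Remaining BTK quantified by Nano-Glo HiBiT lytic luminescence versus DMSO controls; DC50 reported.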
For `Cc1cc(-c2ccnc3[nH]c(-c4ccc(CN5CCC(c6ccc(NC7CCC(=O)NC7=O)cc6)CC5)cc4)cc23)ccc1CNC(=O)c1noc(C(C)(C)C)n1` (centres unmarked) [Example 161, 5-tert-butyl-N-[[4-[2-[4-[[4-[4-[(2,6-dioxo-3-piperidyl)amino]phenyl]-1-piperidyl]methyl]phenyl]-1H-pyrrolo[2,3-b]pyridin-4-yl]-2-methyl-phenyl]methyl]-1,2,4-oxadiazole-3-carboxamide], the DC50 was less than 0.1 µM. In the case of `Cc1cc(-c2ccnc3cc(-c4ccc(CN5CCC(c6ccc(NC7CCC(=O)NC7=O)cc6)CC5)cc4)nn23)ccc1CNC(=O)c1noc(C(C)(C)C)n1` (centres unmarked) [Example 162, 5-tert-butyl-N-[[4-[2-[4-[[4-[4-[(2,6-dioxo-3-piperidyl)amino]phenyl]-1-piperidyl]methyl]phenyl]pyrazolo[1,5-a]pyrimidin-7-yl]-2-methyl-phenyl]methyl]-1,2,4-oxadiazole-3-carboxamide], the DC50 is reported as less than 0.1 µM. `Cc1cc(-c2ccnc3cc(CCCCN4CCC(c5ccc(NC6CCC(=O)NC6=O)cc5)CC4)nn23)ccc1CNC(=O)c1noc(C(C)(C)C)n1` (centres unmarked) [Example 163, 5-tert-butyl-N-[[4-[2-[4-[4-[4-[(2,6-dioxo-3-piperidyl)amino]phenyl]-1-piperidyl]butyl]pyrazolo[1,5-a]pyrimidin-7-yl]-2-methyl-phenyl]methyl]-1,2,4-oxadiazole-3-carboxamide] was tested, and the DC50 was less than 0.1 µM. `Cn1nc(N2CCC(=O)NC2=O)c2ccc(C3CCN(Cc4ccc(-c5cc6nccc(-c7ccc(CNC(=O)c8noc(C(C)(C)C)n8)c(F)c7)n6n5)cc4)CC3)cc21` [Example 164, 5-tert-butyl-N-[[4-[2-[4-[[4-[3-(2,4-dioxohexahydropyrimidin-1-yl)-1-methyl-indazol-6-yl]-1-piperidyl]methyl]phenyl]pyrazolo[1,5-a]pyrimidin-7-yl]-2-fluoro-phenyl]methyl]-1,2,4-oxadiazole-3-carboxamide] showed a DC50 of less than 0.1 µM. `Cn1nc(N2CCC(=O)NC2=O)c2ccc(C3CCN(Cc4ccc(-c5cc6nccc(-c7ccc(CNC(=O)N8CC(OC(C)(C)C)C8)c(F)c7)n6n5)cc4)CC3)cc21` [Example 165, 3-tert-butoxy-N-[[4-[2-[4-[[4-[3-(2,4-dioxohexahydropyrimidin-1-yl)-1-methyl-indazol-6-yl]-1-piperidyl]methyl]phenyl]pyrazolo[1,5-a]pyrimidin-7-yl]-2-fluoro-phenyl]methyl]azetidine-1-carboxamide] was tested, and the DC50 was less than 0.1 µM. For `Cn1nc(N2CCC(=O)NC2=O)c2ccc(C3CCN(Cc4ccc(-c5cc6nccc(-c7ccc(CNC(=O)c8noc(C(C)(C)C)n8)c(F)c7)n6n5)cc4F)CC3)cc21` [Example 166, 5-tert-butyl-N-[[4-[2-[4-[[4-[3-(2,4-dioxohexahydropyrimidin-1-yl)-1-methyl-indazol-6-yl]-1-piperidyl]methyl]-3-fluoro-phenyl]pyrazolo[1,5-a]pyrimidin-7-yl]-2-fluoro-phenyl]methyl]-1,2,4-oxadiazole-3-carboxamide], the DC50 was less than 0.1 µM. Compound `Cn1nc(N2CCC(=O)NC2=O)c2ccc(C3CCN(Cc4ccc(-c5cc6nccc(-c7ccc(CNC(=O)N8CC(OC(C)(C)C)C8)c(F)c7)n6n5)cc4F)CC3)cc21` [Example 167, 3-tert-butoxy-N-[[4-[2-[4-[[4-[3-(2,4-dioxohexahydropyrimidin-1-yl)-1-methyl-indazol-6-yl]-1-piperidyl]methyl]-3-fluoro-phenyl]pyrazolo[1,5-a]pyrimidin-7-yl]-2-fluoro-phenyl]methyl]azetidine-1-carboxamide] has a DC50 of less than 0.1 µM. Work on `Cc1cc(-c2ncnn3cc(CCC(F)(F)CN4CCC(c5ccc(C6CCC(=O)NC6=O)cc5)CC4)cc23)ccc1CNC(=O)c1noc(C(C)(C)C)n1` (centres unmarked) [Example 168, 5-tert-butyl-N-[[4-[6-[4-[4-[4-(2,6-dioxo-3-piperidyl)phenyl]-1-piperidyl]-3,3-difluoro-butyl]pyrrolo[2,1-f][1,2,4]triazin-4-yl]-2-methyl-phenyl]methyl]-1,2,4-oxadiazole-3-carboxamide] yielded a DC50 of less than 0.1 µM. For `CC(C)(C)c1nc(C(=O)NCc2ccc(-c3ncnn4cc(CCC(F)(F)CN5CCC(c6ccc(C7CCC(=O)NC7=O)cc6)CC5)cc34)cc2F)no1` (centres unmarked) [Example 169, 5-tert-butyl-N-[[4-[6-[4-[4-[4-(2,6-dioxo-3-piperidyl)phenyl]-1-piperidyl]-3,3-difluoro-butyl]pyrrolo[2,1-f][1,2,4]triazin-4-yl]-2-fluoro-phenyl]methyl]-1,2,4-oxadiazole-3-carboxamide], the DC50 was 0.1 to 0.5 µM. For `CC(C)(C)c1nc(C(=O)NCc2ccc(-c3ncnn4cc(CCC(F)CN5CCC(c6ccc(NC7CCC(=O)NC7=O)cc6)CC5)cc34)cc2F)no1` (centres unmarked) [Example 170, 5-tert-butyl-N-[[4-[6-[4-[4-[4-[(2,6-dioxo-3-piperidyl)amino]phenyl]-1-piperidyl]-3-fluoro-butyl]pyrrolo[2,1-f][1,2,4]triazin-4-yl]-2-fluoro-phenyl]methyl]-1,2,4-oxadiazole-3-carboxamide], the DC50 was less than 0.1 µM. Compound `Cc1cc(-c2ncnn3cc(CCC[C@H](F)CN4CCC(c5ccc(C6CCC(=O)NC6=O)cc5)CC4)cc23)ccc1CNC(=O)c1noc(C(C)(C)C)n1` (stereo partly drawn) [Example 171, 5-tert-butyl-N-[[4-[6-[(4S)-5-[4-[4-(2,6-dioxo-3-piperidyl)phenyl]-1-piperidyl]-4-fluoro-pentyl]pyrrolo[2,1-f][1,2,4]triazin-4-yl]-2-methyl-phenyl]methyl]-1,2,4-oxadiazole-3-carboxamide] has a DC50 of less than 0.1 µM. `Cc1cc(-c2ncnn3cc(N4CCN(C(=O)C5CCN(C(=O)c6ccc(OC7CCC(=O)NC7=O)cc6)C5)CC4)cc23)ccc1CNC(=O)c1noc(C(C)(C)C)n1` (centres unmarked) [Example 172, 5-(tert-butyl)-N-(4-(6-(4-(1-(4-((2,6-dioxopiperidin-3-yl)oxy)benzoyl)pyrrolidine-3-carbonyl)piperazin-1-yl)pyrrolo[2,1-f][1,2,4]triazin-4-yl)-2-methylbenzyl)-1,2,4-oxadiazole-3-carboxamide] gave a DC50 of 0.1 to 0.5 µM. Work on `Cc1cc(-c2ncnn3cc(N4CCN(C(=O)CCCCNC(=O)c5ccc(OC6CCC(=O)NC6=O)cc5)CC4)cc23)ccc1CNC(=O)c1noc(C(C)(C)C)n1` (centres unmarked) [Example 173, 5-(tert-butyl)-N-(4-(6-(4-(5-(4-((2,6-dioxopiperidin-3-yl)oxy)benzamido)pentanoyl)piperazin-1-yl)pyrrolo[2,1-f][1,2,4]triazin-4-yl)-2-methylbenzyl)-1,2,4-oxadiazole-3-carboxamide] yielded a DC50 of 0.1 to 0.5 µM. For `Cc1cc(-c2ncnn3cc(N4CCN(C(=O)C5(CNC(=O)c6ccc(OC7CCC(=O)NC7=O)cc6)CC5)CC4)cc23)ccc1CNC(=O)c1noc(C(C)(C)C)n1` (centres unmarked) [Example 174, 5-(tert-butyl)-N-(4-(6-(4-(1-((4-((2,6-dioxopiperidin-3-yl)oxy)benzamido)methyl)cyclopropane-1-carbonyl)piperazin-1-yl)pyrrolo[2,1-f][1,2,4]triazin-4-yl)-2-methylbenzyl)-1,2,4-oxadiazole-3-carboxamide], the DC50 was less than 0.1 µM. With `Cc1cc(-c2ncnn3cc(N4CCN(C(=O)CC5CC(NC(=O)c6ccc(OC7CCC(=O)NC7=O)cc6)C5)CC4)cc23)ccc1CNC(=O)c1noc(C(C)(C)C)n1` (centres unmarked) [Example 175, 5-(tert-butyl)-N-(4-(6-(4-(2-(3-(4-((2,6-dioxopiperidin-3-yl)oxy)benzamido)cyclobutyl)acetyl)piperazin-1-yl)pyrrolo[2,1-f][1,2,4]triazin-4-yl)-2-methylbenzyl)-1,2,4-oxadiazole-3-] the DC50 was 0.1 to 0.5 µM. `Cc1cc(-c2ncnn3cc(N4CCN(C(=O)CC5CCCCN5C(=O)c5ccc(OC6CCC(=O)NC6=O)cc5)CC4)cc23)ccc1CNC(=O)c1noc(C(C)(C)C)n1` (centres unmarked) [Example 176, 5-(tert-butyl)-N-(4-(6-(4-(2-(1-(4-((2,6-dioxopiperidin-3-yl)oxy)benzoyl)piperidin-2-yl)acetyl)piperazin-1-yl)pyrrolo[2,1-f][1,2,4]triazin-4-yl)-2-methylbenzyl)-1,2,4-oxadiazole-3-carboxamide] was tested, and the DC50 was 0.1 to 0.5 µM. `Cc1cc(-c2ncnn3cc(N4CCN(C(=O)c5cn(CCNC(=O)c6ccc(OC7CCC(=O)NC7=O)cc6)nn5)CC4)cc23)ccc1CNC(=O)c1noc(C(C)(C)C)n1` (centres unmarked) [Example 177, 5-(tert-butyl)-N-(4-(6-(4-(1-(2-(4-((2,6-dioxopiperidin-3-yl)oxy)benzamido)ethyl)-1H-1,2,3-triazole-4-carbonyl)piperazin-1-yl)pyrrolo[2,1-f][1,2,4]triazin-4-yl)-2-methylbenzyl)-1,2,4-oxadiazole-3-carboxamide] showed a DC50 greater than 1 µM. With `Cc1cc(-c2ncnn3cc(N4CCN(C(=O)C5CC6(CCN(C(=O)c7ccc(OC8CCC(=O)NC8=O)cc7)C6)C5)CC4)cc23)ccc1CNC(=O)c1noc(C(C)(C)C)n1` (centres unmarked) [Example 178, 5-(tert-butyl)-N-(4-(6-(4-(6-(4-((2,6-dioxopiperidin-3-yl)oxy)benzoyl)-6-azaspiro[3.4]octane-2-carbonyl)piperazin-1-yl)pyrrolo[2,1-f][1,2,4]triazin-4-yl)-2-methylbenzyl)-1,2,4-oxadiazole-3-carboxamide] the DC50 was less than 0.1 µM. `Cc1cc(-c2ncnn3cc(N4CCN(C(=O)c5ccc(CNC(=O)c6ccc(OC7CCC(=O)NC7=O)cc6)nc5)CC4)cc23)ccc1CNC(=O)c1noc(C(C)(C)C)n1` (centres unmarked) [Example 179, 5-(tert-butyl)-N-(4-(6-(4-(6-((4-((2,6-dioxopiperidin-3-yl)oxy)benzamido)methyl)nicotinoyl)piperazin-1-yl)pyrrolo[2,1-f][1,2,4]triazin-4-y1)-2-methylbenzyl)-1,2,4-oxadiazole-3-carboxamide] showed a DC50 of 0.1 to 0.5 µM. Compound `Cc1cc(-c2ncnn3cc(N4CCN(C(=O)CCCCCCCCNC(=O)c5ccc(OC6CCC(=O)NC6=O)cc5)CC4)cc23)ccc1CNC(=O)c1noc(C(C)(C)C)n1` (centres unmarked) [Example 180, 5-(tert-butyl)-N-(4-(6-(4-(9-(4-((2,6-dioxopiperidin-3-yl)oxy)benzamido)nonanoyl)piperazin-1-yl)pyrrolo[2,1-f][1,2,4]triazin-4-yl)-2-methylbenzyl)-1,2,4-oxadiazole-3-carboxamide] has a DC50 of less than 0.1 µM.
